Test results taken from patent US20030036518A1, “ARTIFICIAL POLYMERIC MEMBRANE STRUCTURE, METHOD FOR PREPARING SAME, METHOD FOR PREPARING THIS POLYMER, PARTICLE AND FILM CONTAINING THIS STRUCTURE” (priority 1996, published 2003).

Columns and labels:
Format in all cases: physicochemical
[1] = Association of doxorubicin with small-size porous particles; details: 5 mg doxorubicin, 5 mg small-size porous particles, 2 h
Method: The procedure was as in example 10, but an attempt was made to prepare smaller sized porous particles. 1 g of SEPHADEX® C25 porous matrix was dispersed in 100 ml of distilled water and the preparation was ground for 15 min with a helical mill. The preparation was then centrifuged at 3000 g for 10 min and the supernatant was recovered and then subjected to further centrifuging at 25000 g for 45 min. The supernatant was removed, the cake was put back into suspension and 50 mg of a dry product were obtained following freeze-drying. The size of the particles obtained, measured by a particle analyzer, was between 300 and 500 nm.
5 mg of these small-size porous particles were dispersed in 5 ml of distilled water. 5 mg of doxorubicin were added and the whole was stirred for 2 h. The concentration of doxorubicin not associated with the particles was determined by ultrafiltration of an aliquot of the suspension through an ultrafiltration membrane of which the separation threshold was 50000, and the concentration of free doxorubicin was measured by UV spectrometry at 480 nm. […] These were then used as they were without supplementary purification.

[2] = Association of doxorubicin with porous particles; details: 5 mg doxorubicin hydrochloride, 5 mg SEPHADEX® C25, 2 h at 4° C.
Method: The overall procedure was as in example 7, but incorporating doxorubicin (C27H29NO11,PM543, 53) in place of haemoglobin, 5 mg of doxorubicin hydrochloride being dissolved in 1 ml of distilled water and incubated with 5 mg of porous particles (SEPHADEX® C25) substituted with carboxymethyl groups. The pore size of the particles was such that molecules with a maximum molecular weight of 25000 could penetrate. The suspension was stirred for 2 h at 4° C. with a planetary stirrer. It was then decanted and the free doxorubicin concentration was measured by UV spectrophotometry at 480 nm. […] The non-absorbed doxorubicin fraction was removed by decanting and washing the cake with distilled water.

[3] = Absorption of haemoglobin on the porous substrate; details: 20 mg haemoglobin, 5 mg SEPHADEX® SPC50, pH 6.5, 24 h at 4° C.
Method: 5 mg of porous particles (SEPHADEX® SPC50) with a diameter of 150 μm substituted with sulfopropyl groups and having a pore size sufficient to allow the penetration of molecules with a maximum molecular weight of 250000, were dispersed in 5 ml of a 10 mM bi-tri buffer, of pH 6.5 (where the haemoglobin is cationic and is attracted inside the anionic sites of the porous particles). 20 mg of haemoglobin, extracted from human erythrocytes by the lysis method in a hypotonic medium, were then added to this dispersion. The preparation was stirred for 24 h at 4° C. on a planetary stirrer. The particles were then decanted and the quantity present in the supernatant was determined by UV spectrometry at 410 nm. […] The non-absorbed haemoglobin was removed by decanting the particles and washing them with a 10 mM bi-tri buffer.

doxorubicin associated with the particles [1]	doxorubicin associated with the particles [2]	Compound	haemoglobin present inside the particles [3]
more than 98%	more than 97%	COc1cccc2c1C(=O)c1c(O)c3c(c(O)c1C2=O)C[C@@](O)(C(=O)CO)C[C@@H]3O[C@H]1C[C@H](N)[C@H](O)[C@H](C)O1 [doxorubicin]	
		haemoglobin: haemoglobin extracted from human erythrocytes by the lysis method in a hypotonic medium	more than 98%
